This passage reports EC50 results from patent publication US9908873B2, “GPR40 agonists for the treatment of type II diabetes” (Janssen Pharmaceutica NV, priority 2015, dated 2018).

pEC50: −log10 of the molar value. Values joined by “and” are separate entries in the source; they are usually repeats but may differ in a detail not shown here. Equal values may be shown once.

For the assay, the target named is T1, human GPR40 (Homo sapiens, UniProt O14842).
T1 construct: expressed in transfected cells
T1 sequence (O14842 whole entry): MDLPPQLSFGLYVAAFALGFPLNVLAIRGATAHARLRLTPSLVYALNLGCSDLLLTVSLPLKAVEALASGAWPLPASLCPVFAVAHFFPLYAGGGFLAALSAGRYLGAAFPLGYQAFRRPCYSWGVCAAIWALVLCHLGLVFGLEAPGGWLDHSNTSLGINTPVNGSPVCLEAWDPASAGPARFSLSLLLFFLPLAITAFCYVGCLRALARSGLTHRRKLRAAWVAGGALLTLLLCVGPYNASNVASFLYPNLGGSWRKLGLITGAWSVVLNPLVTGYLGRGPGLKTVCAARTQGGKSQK
Nature of the assay: GPR40 Calcium Flux Assay. Format: cell-based. As to conditions: transfected HEK293 cells stably expressing human GPR40; calcium-sensitive fluorescent dye; read-out: hGPR40 Ca^2+ Assay EC50. The procedure:
Compounds were tested in a calcium flux assay using transfected HEK293 cells stably expressing either human GPR40 or rat GPR40. Human GPR40 expressing cells were cultured in DMEM-High Glucose media supplemented with 10% fetal bovine serum, 1×L-Glutamine, 1×Penicillin/Streptomycin and 500 μg/mL G418. Rat GPR40 expressing cells were cultured in DMEM-High Glucose media supplemented with 10% fetal bovine serum and 1 μg/mL puromycin. Cells were plated into poly-D-lysine coated 384-well plates and cultured overnight in a 37° C. humidified tissue culture incubator under 5% CO2/[…] atmosphere. On the day of the experiment, the culture media was replaced with assay buffer (HBSS, 20 mM HEPES, 0.1% BSA) and the cells incubated at 37° C. for 1 h. Calcium-sensitive fluorescent dye (Fluo 8 No-Wash Calcium Dye, ABD Bioquest) was then added and the cells incubated for another 30 min at 37° C. followed by 15 min at room temperature while protected from the light. The cell plate and a plate of diluted compounds of Formula (II) were loaded into a fluorescent plate reader that added compounds onto the cells while measuring the fluorescence intensity of each well. The plate reader recorded fluorescence intensity at 1 second intervals for 8 min and provided the data for analysis in an Excel format. EC50 values were calculated using Prism (GraphPad) software.
A general note: Calcium assays in cells follow changes in intracellular calcium, usually with a dye or a luminescent sensor.
Consider `COc1ccc(F)c(-c2nsc(COc3cccc([C@@H](CC(=O)O)C4CC4)c3)c2C2=CCCC2(C)C)c1` [Cpd 61, (3S)-3-cyclopropyl-3-[3-[[4-(5,5-dimethylcyclopenten-1-yl)-3-(2-fluoro-5-methoxy-phenyl)isothiazol-5-yl]methoxy]phenyl]propanoic acid], for which the negative-log EC50 (pEC50) (commonly −log10 of the EC50, conventionally taken in molar units) is 6.59 and 6.69. The figure for `COc1ccc(F)c(-c2noc(CCc3cccc([C@@H](CC(=O)O)C4CC4)c3)c2C2CCCC2(C)C)c1` (stereo partly drawn) [Cpd 54, (3S)-3-cyclopropyl-3-[3-[2-[4-(2,2-dimethylcyclopentyl)-3-(2-fluoro-5-methoxy-phenyl)isoxazol-5-yl]ethyl]phenyl]propanoic acid] is 9.00.

Regarding `COc1ccc(F)c(-c2noc(/C=C\c3cccc([C@@H](CC(=O)O)C4CC4)c3)c2C2=CCCC2(C)C)c1` [Cpd 59, (3S)-3-cyclopropyl-3-[3-[(Z)-2-[4-(5,5-dimethylcyclopenten-1-yl)-3-(2-fluoro-5-methoxy-phenyl)isoxazol-5-yl]vinyl]phenyl]propanoic acid], the pEC50 is 6.60. `COc1ccc(F)c(-c2noc(/C=C/c3cccc(C(CC(=O)O)C4CC4)c3)c2C2CC2)c1` (stereo in doubt) [Cpd 58, (3S)-3-cyclopropyl-3-[3-[(E)-2-[4-cyclopropyl-3-(2-fluoro-5-methoxy-phenyl)isoxazol-5-yl]vinyl]phenyl]propanoic acid]: the pEC50 is 7.59. In the case of `COc1ccc(F)c(-c2noc(COc3cccc([C@@H](CC(=O)O)C4CC4)c3)c2C2=CCCC2(C)C)c1` [Cpd 62, (3S)-3-cyclopropyl-3-[3-[[4-(5,5-dimethylcyclopenten-1-yl)-3-(2-fluoro-5-methoxy-phenyl)isoxazol-5-yl]methoxy]phenyl]propanoic acid] it was 9.00; in that of `COc1ccc(F)c(-c2noc(COc3cc(C(CC(=O)O)C4CC4)ccn3)c2C2=CCCC2(C)C)c1` (stereo not shown) [Cpd 53, 3-cyclopropyl-3-[2-[[4-(5,5-dimethylcyclopenten-1-yl)-3-(2-fluoro-5-methoxy-phenyl)isoxazol-5-yl]methoxy]-4-pyridyl]propanoic acid], 9.00. The figure for `COc1ccc(F)c(-c2cc(COc3cccc([C@@H](CC(=O)O)C4CC4)c3)sc2C(C)(C)C)c1` [Cpd 60, (3S)-3-[3-[[5-tert-butyl-4-(2-fluoro-5-methoxy-phenyl)-2-thienyl]methoxy]phenyl]-3-cyclopropyl-propanoic acid] is 7.25 and 7.54; for `COc1ccc(F)c(-c2noc(CCc3cccc([C@@H](CC(=O)O)C4CC4)c3)c2C2CC2)c1` [Cpd 57, (3S)-3-cyclopropyl-3-[3-[2-[4-cyclopropyl-3-(2-fluoro-5-methoxy-phenyl)isoxazol-5-yl]ethyl]phenyl]propanoic acid] it is 7.60.

Consider `COc1ccc(F)c(-c2noc(/C=C/c3cccc([C@@H](CC(=O)O)C4CC4)c3)c2C2=CCCC2(C)C)c1` [Cpd 56, (3S)-3-cyclopropyl-3-[3-[(E)-2-[4-(5,5-dimethylcyclopenten-1-yl)-3-(2-fluoro-5-methoxy-phenyl)isoxazol-5-yl]vinyl]phenyl]propanoic acid], for which the pEC50 is 7.64. Consider `COc1ccc(F)c(-c2noc(COc3cc(C(CC(=O)O)C4CC4)c(Cl)cn3)c2C2=CCCC2(C)C)c1` (stereo not shown) [Cpd 55, 3-[5-chloro-2-[[4-(5,5-dimethylcyclopenten-1-yl)-3-(2-fluoro-5-methoxy-phenyl)isoxazol-5-yl]methoxy]-4-pyridyl]-3-cyclopropyl-propanoic acid], for which the pEC50 was 7.66.
